# Reference: patent US7935700B2, “Morpholine compound” (Mitsubishi Tanabe Pharma Corporation, priority 2004, dated 2011)
# Structures can show the parent of a compound that is named as a salt. Where two headings read alike, the source gives them in different places.
# How the values were obtained:
# [1] = test system: mouse ovalbumin (OVA) induced allergic and biphasic ear edema; assay: Antigen (OVA) induced allergic and biphasic ear edema model; format: in vivo; details: male BALB/c mice, oral once a day from 2 days before induction, 3 or 10 mg/kg tested
# Procedure: 3: Effect on Antigen Induced Allergic and Biphasic Ear Edema Model
# The in vivo effect of the compound of the present invention was examined using a mouse ovalbumin (OVA) induced allergic and biphasic ear edema model. The model was prepared according to the method of Sugawara et al. (Allergy & Clinical Immunology International, Supplement No. 2, P 785, 2000). In other words, male BALB/c mice were immunized by intraperitoneal injection with 10 μg of OVA and 1 mg of aluminum hydroxide gel (Alum). At 14 days after immunization, OVA (5 μg) were subcutaneously injected to the both ears of the mouse, whereby ear edema was induced. The thickness of the ears was measured using a dial sickness gauge immediately before subcutaneous injection and 1 and 24 hrs after subcutaneous injection of OVA. The compound of the present invention was suspended in a vehicle, 0.5% hydroxypropylmethyl cellulose solution, and orally administered at 3 mg/kg or 10 mg/kg once a day using an orally gavage needle from 2 days before ear edema induction.
# CCR3 = molecular target: T1, CCR3 (Homo sapiens, UniProt P51677); assay: Effect on intracellular calcium concentration in eosinophils upon CCL11 stimulation; format: cell-based; details: peripheral blood eosinophils of healthy subject, agonist CCL11 1.0 nmol/L, compound 3 min before stimulation, Fura-2 AM; read-out: IC50 (50% suppression of the increase in the intracellular calcium concentration)
# T1 construct: Eosinophils separated from peripheral blood of healthy subject; endogenous in cells; host or cells: eosinophils separated from peripheral blood of healthy subject
# T1 sequence (P51677 1-355): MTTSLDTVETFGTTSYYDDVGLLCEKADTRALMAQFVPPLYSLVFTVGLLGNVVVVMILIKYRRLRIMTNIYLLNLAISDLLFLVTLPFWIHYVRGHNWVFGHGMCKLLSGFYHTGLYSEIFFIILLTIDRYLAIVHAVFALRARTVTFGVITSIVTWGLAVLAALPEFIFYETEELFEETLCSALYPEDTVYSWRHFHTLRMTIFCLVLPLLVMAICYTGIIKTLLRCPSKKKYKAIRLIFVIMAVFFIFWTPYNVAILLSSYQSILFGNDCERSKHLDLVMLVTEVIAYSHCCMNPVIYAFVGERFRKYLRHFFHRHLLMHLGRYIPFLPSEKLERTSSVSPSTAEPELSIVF
# Procedure: Effect on Intracellular Calcium Concentration
# The effect of the compound of the present invention on intracellular calcium mobilization in peripheral blood eosinophils of healthy subject upon CCL11 stimulation was examined by the following method.
# Eosinophils separated from peripheral blood of healthy subject were suspended in 0.5% bovine serum albumin-containing phosphate buffered saline, and incubated at 37° C. for 45 min in the presence of 5 μmol/L of Fura-2 AM (manufactured by DOJINDO LABORATORIES).
# After incubation, the cells were washed 3 times with a measurement buffer (10 mmol/L HEPES, and 0.5% bovine serum albumin-containing hanks' balanced salt solution) to remove Fura-2 AM that was not incorporated into the cells.
# Finally, the cells were adjusted to 1×10^6 cells/mL with the measurement buffer and preserved in a dark place until measurement. The intracellular calcium was measured using FDSS3000 manufactured by Hamamatsu Photonics K.K. In other words, the cell suspension (0.1 mL) loaded with Fura-2 AM was placed in a 96 well plate for measurement, the fluorescence intensity to the excitation light at wavelengths 340 nm and 380 nm was measured by FDSS3000, the ratio of the fluorescence intensity to the excitation light at these two wavelengths was determined, based on which the intracellular calcium concentration was calculated. As the agonist, used was CCL11 (1.0 nmol/L), which is a CCR3 selective ligand, and the antagonistic activity was determined as 50% suppression rate (IC50 value) of the increase in the intracellular calcium concentration, when eosinophils were treated with various concentrations of the compound of the present invention at 3 min before agonist stimulation.
# [2] = ear thickness 1 hr after OVA, read-out: Dose that showed a significant suppressive action vs vehicle, Immediate phase
# [3] = ear thickness 24 hrs after OVA, read-out: Dose that showed a significant suppressive action vs vehicle, Late phase
Compound,"minimal effective dose [1, 2] [mg/kg]","minimal effective dose [1, 3] [mg/kg]",IC50 (CCR3) [nM]
"NC(=O)CNC(=O)c1ccc(SCC(=O)NC[C@H]2CN(Cc3ccc(Cl)c(Cl)c3)CCO2)cc1 [Example 40, (2S)-{4-[(2-amino-2-oxoethyl)aminocarbonyl]phenylthio}-N-{[4-(3,4-dichlorobenzyl)morpholin-2-yl]methyl}acetamide]",3,3,2
"O=C(O)CCNC(=O)c1csc(SCC(=O)NC[C@H]2CN(Cc3ccc(Cl)c(Cl)c3)CCO2)n1 [Example 46, (2S)-{4-[(2-carboxyethyl)aminocarbonyl]thiazol-2-ylthio}-N-{[4-(3,4-dichlorobenzyl)morpholin-2-yl]methyl}acetamide hydrochloride]",10,10,3.1
"CC(=O)Nc1nnc(SCC(=O)NC[C@H]2CN(Cc3ccc(Cl)c(Cl)c3)CCO2)s1 [Example 53, (2S)-(5-acetamino-1,3,4-thiadiazol-2-ylthio)-N-{[4-(3,4-dichlorobenzyl)morpholin-2-yl]methyl}acetamide]",3,3,5.3
"NC(=O)c1csc(SCCCC(=O)NC[C@H]2CN(Cc3ccc(Cl)c(Cl)c3)CCO2)n1 [Example 55, (2S)-4-(4-carbamoylthiazol-2-ylthio)-N-{[4-(3,4-dichlorobenzyl)morpholin-2-yl]methyl}butyramide hydrochloride]",,,1.1
"O=C(CSc1nc(-c2nnn[nH]2)cs1)NC[C@H]1CN(Cc2ccc(Cl)c(Cl)c2)CCO1 [Example 59, (2S)-N-{[4-(3,4-dichlorobenzyl)morpholin-2-yl]methyl}-[4-(1H-tetrazol-5-yl)thiazol-2-ylthio]acetamide]",,,2.1
"O=C(CSc1nc2cccnc2s1)NC[C@H]1CN(Cc2ccc(Cl)c(Cl)c2)CCO1 [Example 64, (2S)-N-{[4-(3,4-dichlorobenzyl)morpholin-2-yl]methyl}-([1,3]thiazolo[5,4-b]pyridin-2-ylthio)acetamide]",10,3,0.3
"NC(=O)/C=C/c1csc(SCC(=O)NC[C@H]2CN(Cc3ccc(Cl)c(Cl)c3)CCO2)n1 [Example 71, (2S)-(E)-[4-(2-carbamoylethen-1-yl)thiazol-2-ylthio]-N-{[4-(3,4-dichlorobenzyl)morpholin-2-yl]methyl}acetamide]",,,0.5
"NC(=O)Cc1csc(SCC(=O)NC[C@H]2CN(Cc3ccc(F)c(F)c3)CCO2)n1 [Example 79, (2S)-[4-(carbamoylmethyl)thiazol-2-ylthio]-N-{[4-(3,4-difluorobenzyl)morpholin-2-yl]methyl}acetamide]",,,0.9
"NC(=O)Cc1csc(SCC(=O)NC[C@H]2CN(Cc3ccc(F)cc3)CCO2)n1 [Example 107, (2S)-[4-(carbamoylmethyl)thiazol-2-ylthio]-N-{[4-(4-fluorobenzyl)morpholin-2-yl]methyl}acetamide]",,,2.5
"Cc1sc(SCC(=O)NC[C@H]2CN(Cc3ccc(Cl)c(Cl)c3)CCO2)nc1C(=O)O [Example 109, (2S)-(4-carboxy-5-methylthiazol-2-ylthio)-N-{[4-(3,4-dichlorobenzyl)morpholin-2-yl]methyl}acetamide]",,,22.3
"Cc1sc(SCC(=O)NC[C@H]2CN(Cc3ccc(Cl)c(Cl)c3)CCO2)nc1C(N)=O [Example 110, (2S)-(4-carbamoyl-5-methylthiazol-2-ylthio)-N-{[4-(3,4-dichlorobenzyl)morpholin-2-yl]methyl}acetamide]",,,1.5
"NC(=O)c1csc(SCC(=O)NC[C@H]2CN(Cc3ccc(F)c(Cl)c3)CCO2)n1 [Example 112, (2S)-(4-carbamoylthiazol-2-ylthio)-N-{[4-(3-chloro-4-fluorobenzyl)morpholin-2-yl]methyl}acetamide]",,,0.9
"NC(=O)CNC(=O)c1csc(SCC(=O)NC[C@H]2CN(Cc3ccc(F)c(F)c3)CCO2)n1 [Example 115, (2S)-[4-(2-amino-2-oxoethyl)aminocarbonylthiazol-2-ylthio]-N-{[4-(3,4-difluorobenzyl)morpholin-2-yl]methyl}acetamide]",,,2.6
"Nc1nnc(SCC(=O)NC[C@H]2CN(Cc3cccc(Cl)c3)CCO2)s1 [Example 123, (2S)-(5-amino-1,3,4-thiadiazol-2-ylthio)-N-{[4-(3-chlorobenzyl)morpholin-2-yl]methyl}acetamide]",10,10,2.6
"Nc1nnc(SCC(=O)NC[C@H]2CN(Cc3ccc(F)c(F)c3)CCO2)s1 [Example 125, (2S)-(5-amino-1,3,4-thiadiazol-2-ylthio)-N-{[4-(3,4-difluorobenzyl)morpholin-2-yl]methyl}acetamide]",10,3,3.6
"O=C(CSc1ncccn1)NC[C@H]1CN(Cc2ccc(Cl)c(Cl)c2)CCO1 [Example 146, (2S)-N-{[4-(3,4-dichlorobenzyl)morpholin-2-yl]methyl}-(pyrimidin-2-ylthio)acetamide]",3,3,2.5
"CC(=O)c1cc2cc(SCC(=O)NC[C@H]3CN(Cc4ccc(Cl)c(Cl)c4)CCO3)ccc2oc1=O [Example 174, (2S)-(3-acetyl-2-oxo-2H-chromen-6-ylthio)-N-{[4-(3,4-dichlorobenzyl)morpholin-2-yl]methyl}acetamide]",,,16.2
"O=C(CSc1ccc(=O)[nH]n1)NC[C@H]1CN(Cc2ccc(F)c(F)c2)CCO1 [Example 198, (2S)-N-{[4-(3,4-difluorobenzyl)morpholin-2-yl]methyl}-(6-oxo-1,6-dihydropyridazin-3-ylthio)acetamide]",10,10,3.9
"NC(=O)c1cncc(SCC(=O)NC[C@H]2CN(Cc3ccc(Cl)c(Cl)c3)CCO2)c1 [Example 207, (2S)-(3-carbamoylpyridin-5-ylthio)-N-{[4-(3,4-dichlorobenzyl)morpholin-2-yl]methyl}acetamide]",,,2.4
"NC(=O)Cc1cncc(SCC(=O)NC[C@H]2CN(Cc3ccc(Cl)c(Cl)c3)CCO2)n1 [Example 223, (2S)-[6-(carbamoylmethyl)pyrazin-2-ylthio]-N-{[4-(3,4-dichlorobenzyl)morpholin-2-yl]methyl}acetamide]",,,0.1
"O=C(CCCS(=O)(=O)C1CCCC1)NC[C@H]1CN(Cc2ccc(F)c(Cl)c2)CCO1 [Example 232, (2S)-4-(cyclopentanesulfonyl)-N-{[4-(3-chloro-4-fluorobenzyl)morpholin-2-yl]methyl}butyramide]",,,38.5
